From PubChem BioAssay AID2060612 (Molecular Pharmacology Branch, DTP, NCI, 2025)

System: 565232-114-T-J1-PDC complex spheroid viability
Experiment: Anticancer human tumor 565232-114-T-J1-PDC patient-derived bladder carcinoma cell line growth inhibition [CLK]
Settings: for IC50: curve of first compound; for viability, T/C: stronger effect = lower value
Summary of the method: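 Patient-derived tumor cells grown as complex spheroids with HUVEC endothelial cells and mesenchymal stem cells, treated with drug combinations. Concentrations descend in half-log steps from near clinical Cmax, or from 10 microM if Cmax unknown.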

[1] = second compound 0.0316 µM, first compound 0.0316 µM
[2] = second compound 0.0316 µM, first compound 0.1 µM
[3] = second compound 0.0316 µM, first compound 0.316 µM
[4] = second compound 0.0316 µM, first compound 1 µM
[5] = second compound 0.0316 µM, first compound 3.16 µM
[6] = second compound 0.0316 µM, first compound 10 µM
[7] = second compound 0.1 µM, first compound 0.0316 µM
[8] = second compound 0.1 µM, first compound 0.1 µM
[9] = second compound 0.1 µM, first compound 0.316 µM
[10] = second compound 0.1 µM, first compound 1 µM
[11] = second compound 0.1 µM, first compound 3.16 µM
[12] = second compound 0.1 µM, first compound 10 µM
[13] = second compound 0.316 µM, first compound 0.0316 µM
[14] = second compound 0.316 µM, first compound 0.1 µM
[15] = second compound 0.316 µM, first compound 0.316 µM
[16] = second compound 0.316 µM, first compound 1 µM
[17] = second compound 0.316 µM, first compound 3.16 µM
[18] = second compound 0.316 µM, first compound 10 µM
[19] = second compound 1 µM, first compound 0.0316 µM
[20] = second compound 1 µM, first compound 0.1 µM
[21] = second compound 1 µM, first compound 0.316 µM
[22] = second compound 1 µM, first compound 1 µM
[23] = second compound 1 µM, first compound 3.16 µM
[24] = second compound 1 µM, first compound 10 µM
[25] = second compound 3.16 µM, first compound 0.0316 µM
[26] = second compound 3.16 µM, first compound 0.1 µM
[27] = second compound 3.16 µM, first compound 0.316 µM
[28] = second compound 3.16 µM, first compound 1 µM
[29] = second compound 3.16 µM, first compound 3.16 µM
[30] = second compound 3.16 µM, first compound 10 µM
[31] = second compound 10 µM, first compound 0.0316 µM
[32] = second compound 10 µM, first compound 0.1 µM
[33] = second compound 10 µM, first compound 0.316 µM
[34] = second compound 10 µM, first compound 1 µM
[35] = second compound 10 µM, first compound 3.16 µM
[36] = second compound 10 µM, first compound 10 µM
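Further: spheroids exposed to compounds for 7 days before readout.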
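Wherever viability, T/C is given: 100% = DMSO vehicle wells with luminescence normalized to vehicle control.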

COc1ccc([C@@H](O)c2cc(-c3ncnc4cc(N5CCOCC5)ccc34)c(F)cc2Cl)nn1 + CNC(=O)c1ccc(Nc2nc(OC3CCCC3)c3c(-c4ccc5nc(C)oc5c4)c[nH]c3n2)c(OC)c1
IC50 (second compound 0.0316 µM): > 10 µM
IC50 (second compound 0.1 µM): < 0.0316 µM
IC50 (second compound 0.316 µM): < 0.0316 µM
IC50 (second compound 1 µM): < 0.0316 µM
IC50 (second compound 3.16 µM): < 0.0316 µM
IC50 (second compound 10 µM): < 0.0316 µM
viability, T/C [1]: 87.3%
viability, T/C [2]: 87.1%
viability, T/C [3]: 98.5%
viability, T/C [4]: 113%
viability, T/C [5]: 115%
viability, T/C [6]: 88.6%
viability, T/C [7]: 47%
viability, T/C [8]: 41.6%
viability, T/C [9]: 36.9%
viability, T/C [10]: 34.3%
viability, T/C [11]: 34.6%
viability, T/C [12]: 35.8%
viability, T/C [13]: 26.4%
viability, T/C [14]: 29.9%
viability, T/C [15]: 27.9%
viability, T/C [16]: 32%
viability, T/C [17]: 24.5%
viability, T/C [18]: 24.8%
viability, T/C [19]: 23.8%
viability, T/C [20]: 22.1%
viability, T/C [21]: 19.9%
viability, T/C [22]: 22.1%
viability, T/C [23]: 23%
viability, T/C [24]: 19.2%
viability, T/C [25]: 15.7%
viability, T/C [26]: 19.6%
viability, T/C [27]: 17.4%
viability, T/C [28]: 14.5%
viability, T/C [29]: 14.9%
viability, T/C [30]: 13.6%
viability, T/C [31]: 19%
viability, T/C [32]: 17.1%
viability, T/C [33]: 14.4%
viability, T/C [34]: 15.9%
viability, T/C [35]: 15.2%
viability, T/C [36]: 15.8%

COc1cccc2c1C(=O)c1c(O)c3c(c(O)c1C2=O)CC(O)(C(=O)CO)CC3OC1CC(N)C(O)C(C)O1 (centres undefined) + CNC(=O)c1ccc(Nc2nc(OC3CCCC3)c3c(-c4ccc5nc(C)oc5c4)c[nH]c3n2)c(OC)c1
IC50 (second compound 0.0316 µM): 0.115 µM
IC50 (second compound 0.1 µM): < 0.0316 µM
IC50 (second compound 0.316 µM): < 0.0316 µM
IC50 (second compound 1 µM): < 0.0316 µM
IC50 (second compound 3.16 µM): < 0.0316 µM
IC50 (second compound 10 µM): < 0.0316 µM
viability, T/C [1]: 96.7%
viability, T/C [2]: 55.5%
viability, T/C [3]: 10%
viability, T/C [4]: 0.25%
viability, T/C [5]: 0.24%
viability, T/C [6]: 0.28%
viability, T/C [7]: 44.4%
viability, T/C [8]: 22.9%
viability, T/C [9]: 7.66%
viability, T/C [10]: 0.28%
viability, T/C [11]: 0.22%
viability, T/C [12]: 0.23%
viability, T/C [13]: 21.8%
viability, T/C [14]: 18.6%
viability, T/C [15]: 5.6%
viability, T/C [16]: 0.86%
viability, T/C [17]: 0.19%
viability, T/C [18]: 1.3%
viability, T/C [19]: 15.9%
viability, T/C [20]: 12.4%
viability, T/C [21]: 3.59%
viability, T/C [22]: 0.42%
viability, T/C [23]: 0.14%
viability, T/C [24]: 0.26%
viability, T/C [25]: 12.7%
viability, T/C [26]: 9.58%
viability, T/C [27]: 2.15%
viability, T/C [28]: 0.1%
viability, T/C [29]: 0.69%
viability, T/C [30]: 0.49%
viability, T/C [31]: 13.7%
viability, T/C [32]: 9.24%
viability, T/C [33]: 3.57%
viability, T/C [34]: 0.73%
viability, T/C [35]: 1.86%
viability, T/C [36]: 0.29%
